Assays:
[1] = Anti-maximal electroshock seizure activity in mice; type: in vivo, mice (male, STD-ddY strain); conditions: Mus musculus, oral, MES 60 Hz 25 mA 0.2 s, at peak effect time
Text: Male mice of STD-ddY strain were used. The test compounds were orally administered to the test animals (each group: 10 mice) in the form of a homogeneous suspension in a 0.5% tragacanth solution.
Maximal electroshock seizures (MES) were induced by the method of Swinyard [cf. J. Amer. Pharm. Assoc., Vol. 38, page 201 (1949)]. The animals were subjected to 60 Hz current of 25 mA for 0.2 second delivered through corneal electrodes after administration of the test compounds. […] J. Pharmacol. Exp. Ther., Vol. 96, page 99 (1947)].

[2] = Effect on coordinated motor movements in mice (rotarod); conditions: for selectivity ratio / TD50: mouse, in vivo, po; for NTD50 (median neurotoxic dose): oral, mice, rotarod, at peak effect time
Description: Mice trained to continue coordinated motor movements for 100 seconds or more on a rotarod apparatus (2.5 cm in diameter at 11 RPM) were used [J. Amer. Pharm. […] Impairment of coordinated motor movements was defined as the inability of the animals to retain on the rotarod for a 100 second test period. After oral administration of the test compounds rotarod performance was tested at intervals of 1 hour for 6 hours. Median neurotoxic dose (NTD50), i.e. the does which causes fall from rotarod in 50% of animals, was calculated by the method of Litchfield and Wilcoxon.

[3] = in vivo; conditions: mouse; for LD50 at 168 h: mortality observed for 7 days; for selectivity ratio: read-out: Safety index
Text: Male mice of STD-ddY strain weighing 20-22 g were used. The test compounds were orally administered to the test animals (each group: 10 mice) in the form of a homogeneous suspension in 0.5% tragacanth solution.

Row | Compound | ED50 [1] | other results
1 | NC(=O)NC(=O)Cc1ccccc1 [Phenacemide, phenylacetylurea, reference compound] | 61.2 mg/kg | 
2 | NS(=O)(=O)Cc1noc2ccccc12 [compound 1] | 19.6 mg/kg | selectivity ratio [2]: 14.9; NTD50 (median neurotoxic dose) [2]: 292 mg/kg, p.o; LD50 at 168 h ([3]; oral, mice): 1830 mg/kg; selectivity ratio ([3]; po): 93.3
3 | NS(=O)(=O)Cc1nc2cc(Cl)ccc2o1 [compound 23] | 30.3 mg/kg | 
4 | NS(=O)(=O)Cc1noc2cc(F)ccc12 [compound 18] | 18.9 mg/kg | 
5 | CN(C)S(=O)(=O)Cc1noc2ccc(Cl)cc12 [compound 9] | 56.2 mg/kg | 
6 | CN(C)S(=O)(=O)Cc1noc2ccc(F)cc12 [compound 13] | 32 mg/kg | 
7 | CCNS(=O)(=O)Cc1noc2ccc(F)cc12 [compound 12] | 31.6 mg/kg | 
8 | CCNS(=O)(=O)Cc1noc2ccc(Cl)cc12 [compound 8] | 21.3 mg/kg | 
9 | NS(=O)(=O)Cc1noc2ccc(F)cc12 [Test compound 10, 5-Fluoro-3-sulfamoylmethyl-1,2-benzisoxazole] |  | selectivity ratio [2]: 10.6; NTD50 (median neurotoxic dose) [2]: 154 mg/kg, p.o; selectivity ratio ([3]; LD50/ED50 of anti-MES, mice, oral): 86.7; LD50 at 168 h ([3]; oral, mice): 1260 mg/kg
10 | CCNS(=O)(=O)Cc1noc2ccccc12 [Test compound 3] | 38.9 mg/kg | 
11 | NC(=O)N1c2ccccc2C=Cc2ccccc21 [Carbamazepine, 5H-dibenz[b,f]azepine-5-carboxamide, reference compound] | 13.2 mg/kg | TD50 [2]: 141 mg/kg; selectivity ratio [2]: 10.7; LD50 at 168 h ([3]; oral, mice): 1700 mg/kg; selectivity ratio ([3]; po): 129
12 | CNS(=O)(=O)Cc1noc2ccc(F)cc12 [compound 11] | 34.5 mg/kg | 
13 | CCC1(c2ccccc2)C(=O)NCNC1=O [Primidone, 5-ethyl-5-phenylhexahydropyrimidine-4,6-dione, reference compound] | 21.7 mg/kg | 
14 | CC(C)NS(=O)(=O)Cc1noc2ccc(Br)cc12 [compound 17] | 22.3 mg/kg | 
15 | NS(=O)(=O)Cc1noc2ccc(Br)cc12 [compound 14] | 13.5 mg/kg | 
16 | CC(C)NS(=O)(=O)Cc1noc2ccccc12 [Test compound 4] | 56 mg/kg | 
17 | O=C1NC(=O)C(c2ccccc2)(c2ccccc2)N1 [Diphenylhydantoin, 5,5-diphenyl-2,4-imidazolidinedione, reference compound] | 7.6 mg/kg | TD50 [2]: 72 mg/kg
18 | CNS(=O)(=O)Cc1noc2ccc(Br)cc12 [compound 15] | 15 mg/kg | 
19 | CNS(=O)(=O)Cc1nc2ccccc2o1 [compound 20] | 17.2 mg/kg | 
20 | NS(=O)(=O)Cc1noc2ccc(Cl)cc12 [compound 6] | 14.2 mg/kg | 
21 | NS(=O)(=O)Cc1nc2ccccc2o1 [compound 19] | 12 mg/kg | TD50 [2]: 168 mg/kg; selectivity ratio [2]: 14; LD50 at 168 h ([3]; oral, mice): ~1800 mg/kg
22 | CCNS(=O)(=O)Cc1noc2ccc(Br)cc12 [compound 16] | 18.3 mg/kg | 
23 | CN(C)S(=O)(=O)Cc1noc2ccccc12 [compound 5] | 37.2 mg/kg | 
24 | CNS(=O)(=O)Cc1noc2ccccc12 [compound 2] | 22.3 mg/kg | 
25 | CCCNS(=O)(=O)Cc1nc2ccccc2o1 [compound 22] | 31.2 mg/kg | 
26 | CN(C)S(=O)(=O)Cc1nc2ccccc2o1 [compound 21] | 34 mg/kg | 
27 | CNS(=O)(=O)Cc1noc2ccc(Cl)cc12 [Test compound 7] | ~20 mg/kg | 
